Laboratory results published in PubChem BioAssay (NCI).
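GI50 = concentration required for 50% inhibition of growth. TGI: total growth inhibition.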

Assays:
Test in all cases: NCI anticancer screen, dose series, 384-well format
SNB-19 CNS = tested on: SNB-19 CNS
U251 glioblastoma = tested on: U251 glioblastoma
SK-MEL-5 melanoma = tested on: SK-MEL-5 melanoma
HCT-15 colon = tested on: HCT-15 colon
HCT-116 colon = tested on: HCT-116 colon
PC-3 prostate = tested on: PC-3 prostate
786-0 renal = tested on: 786-0 renal
RPMI-8226 leukemia = tested on: RPMI-8226 leukemia
SW-620 colon = tested on: SW-620 colon
NCI-H522 lung = tested on: NCI-H522 lung
EKVX NSCLC = tested on: EKVX NSCLC
UO-31 renal = tested on: UO-31 renal
UACC-62 melanoma = tested on: UACC-62 melanoma
MCF7 breast = tested on: MCF7 breast
UACC-257 melanoma = tested on: UACC-257 melanoma
SF-295 CNS = tested on: SF-295 CNS
HOP-62 NSCLC = tested on: HOP-62 NSCLC
SK-MEL-28 melanoma = tested on: SK-MEL-28 melanoma
A549 NSCLC = tested on: A549 NSCLC
M14 melanoma = tested on: M14 melanoma
OVCAR-3 ovarian = tested on: OVCAR-3 ovarian
SF-268 CNS = tested on: SF-268 CNS
ACHN renal = tested on: ACHN renal
KM12 colon = tested on: KM12 colon
CCRF-CEM leukemia = tested on: CCRF-CEM leukemia
OVCAR-8 ovarian = tested on: OVCAR-8 ovarian
HOP-92 NSCLC = tested on: HOP-92 NSCLC
NCI/ADR-RES ovarian = tested on: NCI/ADR-RES ovarian
K-562 leukemia = tested on: K-562 leukemia
TK-10 renal = tested on: TK-10 renal
SK-OV-3 ovarian = tested on: SK-OV-3 ovarian
COLO 205 colon = tested on: COLO 205 colon
MDA-MB-468 breast = tested on: MDA-MB-468 breast
HCC-2998 colon = tested on: HCC-2998 colon
MALME-3M melanoma = tested on: MALME-3M melanoma
NCI-H460 NSCLC = tested on: NCI-H460 NSCLC
OVCAR-4 ovarian = tested on: OVCAR-4 ovarian
MDA-MB-435 melanoma = tested on: MDA-MB-435 melanoma
NCI-H322M lung = tested on: NCI-H322M lung
NCI-H226 lung = tested on: NCI-H226 lung
SN12C renal = tested on: SN12C renal
HS 578T breast = tested on: HS 578T breast
RXF 393 renal = tested on: RXF 393 renal
T-47D breast = tested on: T-47D breast
HL-60(TB) leukemia = tested on: HL-60(TB) leukemia
BT-549 breast = tested on: BT-549 breast
DU-145 prostate = tested on: DU-145 prostate
IGROV1 ovarian = tested on: IGROV1 ovarian
HT29 colon = tested on: HT29 colon
NCI-H23 lung = tested on: NCI-H23 lung
SF-539 CNS = tested on: SF-539 CNS
OVCAR-5 ovarian = tested on: OVCAR-5 ovarian
CAKI-1 renal = tested on: CAKI-1 renal
MOLT-4 leukemia = tested on: MOLT-4 leukemia
LOX IMVI melanoma = tested on: LOX IMVI melanoma
A498 renal = tested on: A498 renal
SNB-75 CNS = tested on: SNB-75 CNS
MDA-MB-231 breast = tested on: MDA-MB-231 breast

`CNC(=O)c1ccc(Nc2nc(OC3CCCC3)c3c(-c4ccc5nc(C)oc5c4)c[nH]c3n2)c(OC)c1` showed a GI50 (SNB-19 CNS) of 225 nM, a TGI (SNB-19 CNS) of 41600 nM and a GI50 (U251 glioblastoma) of 63 nM. The TGI (U251 glioblastoma) was 16000 nM, the GI50 (SK-MEL-5 melanoma) was 73.5 nM and the TGI (SK-MEL-5 melanoma) was 1550 nM. The GI50 (HCT-15 colon) was 37.5 nM, the TGI (HCT-15 colon) was 2840 nM and the GI50 (HCT-116 colon) was 46.7 nM. The TGI (HCT-116 colon) was 11000 nM, the GI50 (PC-3 prostate) was 896 nM and the TGI (PC-3 prostate) was 15200 nM. It also gave a GI50 ([…]-0 renal) of 65 nM, a TGI (786-0 renal) of 14200 nM and a GI50 (RPMI-8226 leukemia) of 61.8 nM. It also gave a TGI (RPMI-8226 leukemia) of 271 nM, a GI50 (SW-620 colon) of 53.5 nM and a TGI (SW-620 colon) of 762 nM. The GI50 (NCI-H522 lung) was 99.8 nM, the TGI (NCI-H522 lung) was 1440 nM and the GI50 (EKVX NSCLC) was 187 nM. It also gave a TGI (EKVX NSCLC) of 15300 nM, a GI50 (UO-31 renal) of 89.8 nM and a TGI (UO-31 renal) of over 100000 nM. The GI50 (UACC-62 melanoma) was 167 nM, the TGI (UACC-62 melanoma) was 96400 nM and the GI50 (MCF7 breast) was 130 nM. The TGI (MCF7 breast) was 15700 nM, the GI50 (UACC-257 melanoma) was 328 nM and the TGI (UACC-257 melanoma) was 47300 nM. The GI50 (SF-295 CNS) was 265 nM, the TGI (SF-295 CNS) was over 100000 nM and the GI50 (HOP-62 NSCLC) was 37.6 nM. It also gave a TGI (HOP-62 NSCLC) of 5770 nM, a GI50 (SK-MEL-28 melanoma) of 5580 nM and a TGI (SK-MEL-28 melanoma) of 30500 nM. The GI50 (A549 NSCLC) was 22.3 nM, the TGI (A549 NSCLC) was 2890 nM and the GI50 (M14 melanoma) was 84.3 nM. For the same compound, the TGI (M14 melanoma) was 63800 nM, the GI50 (OVCAR-3 ovarian) was 169 nM and the TGI (OVCAR-3 ovarian) was 965 nM. The GI50 (SF-268 CNS) was 18.5 nM, the TGI (SF-268 CNS) was 72.7 nM and the GI50 (ACHN renal) was 87.8 nM. For the same compound, the TGI (ACHN renal) was 15500 nM, the GI50 (KM12 colon) was 81.7 nM and the TGI (KM12 colon) was over 100000 nM. For the same compound, the GI50 (CCRF-CEM leukemia) was 22.6 nM, the TGI (CCRF-CEM leukemia) was 44.5 nM and the GI50 (OVCAR-8 ovarian) was 45.8 nM. The TGI (OVCAR-8 ovarian) was 12500 nM, the GI50 (HOP-92 NSCLC) was 681 nM and the TGI (HOP-92 NSCLC) was 9340 nM. The GI50 (NCI/ADR-RES ovarian) was 316 nM, the TGI (NCI/ADR-RES ovarian) was 60500 nM and the GI50 (K-562 leukemia) was 121 nM. The TGI (K-562 leukemia) was 19400 nM, the GI50 (TK-10 renal) was 626 nM and the TGI (TK-10 renal) was over 100000 nM. For the same compound, the GI50 (SK-OV-3 ovarian) was 352 nM, the TGI (SK-OV-3 ovarian) was 5280 nM and the GI50 (COLO 205 colon) was 33.1 nM. It also gave a TGI (COLO 205 colon) of 233 nM, a GI50 (MDA-MB-468 breast) of 45.4 nM and a TGI (MDA-MB-468 breast) of 226 nM. The GI50 (HCC-2998 colon) was 24500 nM, the TGI (HCC-2998 colon) was over 100000 nM and the GI50 (MALME-3M melanoma) was 93.6 nM. It also gave a TGI (MALME-3M melanoma) of 14200 nM, a GI50 (NCI-H460 NSCLC) of 34.8 nM and a TGI (NCI-H460 NSCLC) of 1710 nM. The GI50 (OVCAR-4 ovarian) was 1900 nM, the TGI (OVCAR-4 ovarian) was 17700 nM and the GI50 (MDA-MB-435 melanoma) was 11000 nM. It also gave a TGI (MDA-MB-435 melanoma) of 49100 nM, a GI50 (NCI-H322M lung) of 593 nM and a TGI (NCI-H322M lung) of 52800 nM. It also gave a GI50 (NCI-H226 lung) of 381 nM, a TGI (NCI-H226 lung) of 9700 nM and a GI50 (SN12C renal) of 224 nM. The TGI (SN12C renal) was 2760 nM, the GI50 (HS 578T breast) was 77.5 nM and the TGI (HS 578T breast) was 891 nM. For the same compound, the GI50 (RXF 393 renal) was 106 nM, the TGI (RXF 393 renal) was 1960 nM and the GI50 (T-47D breast) was 250 nM. For the same compound, the TGI (T-47D breast) was over 100000 nM, the GI50 (HL-60(TB) leukemia) was 40.8 nM and the TGI (HL-60(TB) leukemia) was 1310 nM. For the same compound, the GI50 (BT-549 breast) was 94.9 nM, the TGI (BT-549 breast) was 65100 nM and the GI50 (DU-145 prostate) was 74.3 nM. The TGI (DU-145 prostate) was 15800 nM, the GI50 (IGROV1 ovarian) was 145 nM and the TGI (IGROV1 ovarian) was 15800 nM. The GI50 (HT29 colon) was 84.5 nM, the TGI (HT29 colon) was over 100000 nM and the GI50 (NCI-H23 lung) was 64.3 nM. The TGI (NCI-H23 lung) was 615 nM, the GI50 (SF-539 CNS) was 47.6 nM and the TGI (SF-539 CNS) was 1840 nM. It also gave a GI50 (OVCAR-5 ovarian) of 146 nM, a TGI (OVCAR-5 ovarian) of over 100000 nM and a GI50 (CAKI-1 renal) of 387 nM. It also gave a TGI (CAKI-1 renal) of 3290 nM, a GI50 (MOLT-4 leukemia) of 11.8 nM and a TGI (MOLT-4 leukemia) of 30.4 nM. The GI50 (LOX IMVI melanoma) was 45.4 nM, the TGI (LOX IMVI melanoma) was 14200 nM and the GI50 (A498 renal) was 239 nM. The TGI (A498 renal) was 9430 nM, the GI50 (SNB-75 CNS) was 68.6 nM and the TGI (SNB-75 CNS) was 1780 nM. The GI50 (MDA-MB-231 breast) was 290 nM and the TGI (MDA-MB-231 breast) was over 100000 nM.
